The values below come from ChEMBL document CHEMBL1150030, “Benzolactam growth hormone secretagogues: replacements for the 2-tetrazole moiety of L-692,429” (1994).

The species entered for this assay is Rattus norvegicus. The experiment in a line: In vitro effective dose for the growth hormone(GH) release in rat pituitary cells. As to conditions: Pituitary gland cell, read-out: ED50 (the source's name). Format: functional.

Take `CC(C)(N)CC(=O)N[C@@H]1CCc2ccccc2N(Cc2ccc(-c3ccccc3-c3nnnn3CC(=O)O)cc2)C1=O`: the EC50 is 1000 nM.

For `CC(C)(N)CC(=O)N[C@@H]1CCc2ccccc2N(Cc2ccc(-c3ccccc3-c3nnn(CC(=O)O)n3)cc2)C1=O`, the EC50 stood at 200 nM.

Turning to `Cn1nnnc1-c1ccccc1-c1ccc(CN2C(=O)[C@H](NC(=O)CC(C)(C)N)CCc3ccccc32)cc1`, the EC50 was 500 nM.

For the molecule `CC(C)(N)CC(=O)N[C@@H]1CCc2ccccc2N(Cc2ccc(-c3ccccc3-c3nnn(Cc4ccccc4)n3)cc2)C1=O`, the EC50 worked out at 1000 nM.

With `CC(C)(N)CC(=O)N[C@@H]1CCc2ccccc2N(Cc2ccc(-c3ccccc3-c3nnnn3Cc3ccccc3)cc2)C1=O`, the EC50 was 700 nM.

`CC(C)(N)CC(=O)N[C@@H]1CCc2ccccc2N(Cc2ccc(-c3ccccc3S(=O)(=O)NC(C)(C)C)cc2)C1=O`: the EC50 came to 4000 nM.

Turning to `CC(C)(N)CC(=O)N[C@@H]1CCc2ccccc2N(Cc2ccc(-c3ccccc3S(=O)(=O)NC(=O)c3ccccc3)cc2)C1=O`, the EC50 came out at 3000 nM.

As to `CC(O)Cn1nnc(-c2ccccc2-c2ccc(CN3C(=O)[C@H](NC(=O)CC(C)(C)N)CCc4ccccc43)cc2)n1` (some centres not stated), the EC50 stood at 50 nM.

Regarding `CC(C)(N)CC(=O)N[C@@H]1CCc2ccccc2N(Cc2ccc(-c3ccccc3-c3nn[nH]n3)cc2)C1=O`, the EC50 came out at 60 nM.

Take `CC(C)(N)CC(=O)N[C@@H]1CCc2ccccc2N(Cc2ccc(-c3ccccc3S(N)(=O)=O)cc2)C1=O`: the EC50 worked out at 3000 nM.

Regarding `CC(C)(N)CC(=O)N[C@@H]1CCc2ccccc2N(Cc2ccc(-c3ccccc3C(N)=O)cc2)C1=O`, the EC50 stood at 80 nM.

For `CC(C)(N)CC(=O)N[C@@H]1CCc2ccccc2N(Cc2ccc(-c3ccccc3C(=O)O)cc2)C1=O`, the EC50 stood at 3000 nM.

On to `Cc1ccccc1-c1ccc(CN2C(=O)[C@H](NC(=O)CC(C)(C)N)CCc3ccccc32)cc1`, for which the EC50 is 1000 nM.

For the molecule `CC(O)Cn1nnnc1-c1ccccc1-c1ccc(CN2C(=O)[C@H](NC(=O)CC(C)(C)N)CCc3ccccc32)cc1` (some centres not stated), the EC50 was found to be 50 nM.

`Cn1nnc(-c2ccccc2-c2ccc(CN3C(=O)[C@H](NC(=O)CC(C)(C)N)CCc4ccccc43)cc2)n1`: the EC50 is 300 nM.

In the case of `CC(C)(N)CC(=O)N[C@@H]1CCc2ccccc2N(Cc2ccc(-c3ccccc3C#N)cc2)C1=O` (racemic), the EC50 stood at 5000 nM.

In the case of `COC(=O)c1ccccc1-c1ccc(CN2C(=O)[C@H](NC(=O)CC(C)(C)N)CCc3ccccc32)cc1` (racemic), the EC50 stood at 2000 nM.
